Values of other authors in US8821944B1, “Polymorph compositions, methods of making, and uses thereof” (Edge Therapeutics, Inc., priority 2013, dated 2014).

Assays:
[1] = at +25° C. and +37° C.
[2] = at +25° C. and +37° C.; remark: listed apart in the source

COCCOC(=O)C1=C(C)NC(C)=C(C(=O)OC(C)C)C1c1cccc([N+](=O)[O-])c1 (centres unmarked) [Form II]
stability compared to Form I [1]: higher stability
solubility compared to Form I [2]: lower solubility
